Results reported in US10758560B2, “Methods for treating sarcopenia and frailty” (NESTEC S.A., priority 2015, dated 2020).

B1: neuregulin-1: NRG1 beta EGF domain from Reprokine (catalog number RKQ02297); SEQ ID NO: 7 (protein, listed as Homo sapiens)
chain: SHLVKCAEKEKTFCVNGGECFMVKDLSNPSRYLCKCPNEFTGDRCQNYVMASFYKHLGIEF

Key:
[1] = tested on: Tibialis anterior muscle fibers; experiment: Effect of vitamin B12 on skeletal muscle in vivo: tibialis anterior fiber size in aged rats; set-up: species or system rat; settings: 1 mg/kg s.c. 3 times per week for 5 months, type 2A fibers, FIG. 6
Method: Pre-sarcopenic rats aged 16 months were treated for 5 months with either adenosylcobalamin (AdoCbl, C0884, Sigma aldrich), methylcobalamin (MeCbl, M9756, Sigma aldrich) or saline. AdoCbl and MeCbl were injected sub-cutaneously at 1 mg/kg body weight 3 time per week. Tibialis Anterior (TA) was then dissected out and frozen for further analyses. For histology, TA was cryo-sectioned at 10 μm and stained with laminin (L9393, Sigma aldrich) to delineate fibers. Specific fiber types 1, 2A and 2B were immunolabeled subsequently with appropriate antibodies (clones BADS, BFF3, and SC71 respectively, DSHB). Images were acquired using a slide scanner (VS-120, Olympus) and analyzed using an in-house MetaXpress journal (Molecular Devices, Sunnyvale, USA). Images from old animals were compared to a group of adult healthy rats (8 months at start of experiment) injected with saline control. For gene expression analysis, total RNA was extracted using the miRNeasy Mini Kit (Qiagen) according to the manufacturer's instruction and RNA quality was checked using the Standard Sensitivity RNA Analysis Kit on a Fragment Analyzer (Advanced Analytical Technologies). Samples were then hybridized on Affymetrix Rat 230 PM 96-Array following standard Affymetrix protocol, based on the Eberwine T7 procedure. […]

HSMM human myoblasts = experiment: TNFa-induced myotube atrophy in HSMM human myoblasts (fusion index); assay type: cell-based; settings: TNFa 40 ng/ml for 4 days; 1 nM; FIG. 7
Method: HSMM human myoblasts were grown in vitro and induced to differentiate into mature myotubes. Myotube atrophy was induced by incubation with TNFa at 40 ng/ml for 4 days. MeCbl (1 nM) and AdoCbl (1 nM) were incubated together with TNFa to test their effect on induced atrophy. IGF1 is used as a positive control at 15 nM to prevent muscle atrophy. After 4 days of treatment, cells were stained for nuclei and myosin heavy chain to quantify the proportion of nuclei inside myotubes (i.e fusion index).

[2] = tested on: neuromuscular junctions (nerve and muscle co-cultures); experiment: Nerve and muscle co-cultures, beta-amyloid (2.5 μM) induced damage of neuromuscular junctions; assay type: cell-based; settings: for protection from Ab-induced damage (neuromuscular junction size, number and neurite network): 1 or 100 nM, FIG. 4
Method: Nerve and muscle co-cultures were grown in vitro until neuromuscular junctions were mature. Damage was induced using beta-amyloid (Ab) incubation (2.5 μM) and riluzole (5 μM) was used as a positive control for preserving neuromuscular junctions from Ab-induced damage.
The effect of neuregulin-1 (NRG1; various concentrations, as specified in FIG. 2) on Ab-induced damage was evaluated by measuring the neuromuscular junction (NMJ) size. 6 wells per group were analysed and compared to a control condition. The uninjured control condition is the neuromuscular junction size without Ab treatment. All other conditions are to be compared to the Ab treatment alone which represents the reference value for damaged neuromuscular junction size.
Nerve and muscle co-cultures were grown in vitro until neuromuscular junctions were mature. Damage was induced using beta-amyloid (Ab) incubation (2.5 μM) and riluzole (5 μM) was used as a positive control for preserving neuromuscular junctions from Ab-induced damage. The effect of methylcobalamin (MeCbl; 1 or 100 nM) and adenosylcobalamin (AdenoCbl; 1 or 100 nM) on Ab-induced damage was evaluated by measuring the neuromuscular junction (NMJ) number and size, and the neurite network. 6 wells per group were analysed and compared to a control condition (CTL). The uninjured control condition is the neuromuscular junction size without Ab treatment. All other conditions are to be compared to the Ab treatment alone which represents the reference value for damaged neuromuscular junction size.

[3] = tested on: neuromuscular junctions (nerve and muscle co-cultures); experiment: Nerve and muscle co-cultures, stronger beta-amyloid (10 μM) induced damage of neuromuscular junctions; assay type: cell-based; settings: longer incubation, NRG1 30 nM and/or AdoCbl 1 nM, FIG. 5
Method: Nerve and muscle co-cultures were grown in vitro until neuromuscular junctions were mature. Damage was induced using beta-amyloid (Ab) incubation (10 μM) and riluzole (5 μM) was used as a positive control for preserving neuromuscular junctions from Ab-induced damage. The effect of neuregulin-1 (NRG1; 30 nM) and/or adenosylcobalamin (AdoCbl; 1 nM) on Ab-induced damage was evaluated by measuring the neuromuscular junction (NMJ) size or number. 6 wells per group were analysed and compared to a control condition (CTL) without Ab-induced damage.

[4] = tested on: hind-limb skeletal muscle; experiment: Age-induced atrophy of skeletal muscle in pre-sarcopenic rats (hind-limb skeletal muscle mass); assay type: in vivo, rat; settings: pre-sarcopenic rats aged 16 months, 1 μg/kg s.c. 3 times per week for 5 months, versus saline controls; FIG. 3
Method: Pre-sarcopenic rats aged 16 months were treated for 5 months with either neuregulin-1 (NRG1; NRG1 beta EGF domain from Reprokine (catalog number RKQ02297)) or saline. NRG1 was injected sub-cutaneously at 1 μg/kg body weight 3 time per week. Hind-limb skeletal muscle mass was then evaluated and compared to a group of adult healthy rats (8 months at start of experiment) injected with saline control. […]

Molecule	increase in muscle fiber size [1]	protection from muscle atrophy (fusion index) (HSMM human myoblasts)	protection from Ab-induced damage (neuromuscular junction size, number and neurite network) [2]	rescue of neuromuscular junctions (number and size) from stronger Ab-induced damage [3]	hind-limb skeletal muscle mass [4]	protection of the neuromuscular system from Ab-induced damage (neuromuscular junction size) ([2]; NRG1 at a dose of 30 nM, FIG. 2)
C/C1=C2/[N-][C@H]([C@H](CC(N)=O)[C@@]2(C)CCC(=O)NC[C@H](C)OP(=O)([O-])O[C@H]2[C@@H](O)[C@@H](n3cnc4cc(C)c(C)cc43)O[C@@H]2CO)[C@]2(C)N=C(/C(C)=C3N=C(/C=C4N=C1[C@@H](CCC(N)=O)C\4(C)C)[C@@H](CCC(N)=O)[C@]\3(C)CC(N)=O)[C@@H](CCC(N)=O)[C@]2(C)CC(N)=O.[CH3-].[Co+3] [methylcobalamin, Methylcobalamin]	not methylcobalamin, was also able to induce an increase in muscle fiber size	able to protect from muscle atrophy	not methylcobalamin, was also able to protect the system	–	–	–
C/C1=C2/[N-][C@H]([C@H](CC(N)=O)[C@@]2(C)CCC(=O)NC[C@@H](C)OP(=O)([O-])O[C@H]2[C@@H](O)[C@@H](n3cnc4cc(C)c(C)cc43)O[C@@H]2CO)[C@]2(C)N=C(/C(C)=C3N=C(/C=C4N=C1[C@@H](CCC(N)=O)C\4(C)C)[C@@H](CCC(N)=O)[C@]\3(C)CC(N)=O)[C@@H](CCC(N)=O)[C@]2(C)CC(N)=O.[CH2-][C@H]1O[C@@H](n2cnc3c(N)ncnc32)[C@H](O)[C@@H]1O.[Co] [adenosylcobalamin, Adenosylcobalamin]	able to induce an increase in muscle fiber size	–	able to protect the system at both doses tested	neither neuregulin-1 nor adenosylcobalamin alone could rescue the system	–	–
B1	–	–	–	neither neuregulin-1 nor adenosylcobalamin alone could rescue the system	significantly higher mass compared to controls	able to protect the neuromuscular system from damage
